pEC50: −log10 of the molar value.
biological target: T1, ERR1 (also known as ERR-α or ERR-1) (Homo sapiens, UniProt P11474); assay: TR-FRET assay (disruption of co-activator peptide binding); type: biochemical; settings: 6His-tagged ERR1 LBD, GST-hSRC2 co-activator polypeptide; average of 3 independent experiments
T1 sequence (P11474 193-421 limits assumed): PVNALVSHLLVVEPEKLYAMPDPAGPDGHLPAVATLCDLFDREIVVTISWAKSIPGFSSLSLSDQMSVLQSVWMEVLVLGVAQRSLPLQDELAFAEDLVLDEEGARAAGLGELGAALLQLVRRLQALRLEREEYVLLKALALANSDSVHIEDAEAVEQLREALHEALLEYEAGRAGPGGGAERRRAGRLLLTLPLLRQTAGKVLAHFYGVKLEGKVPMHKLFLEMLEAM
Summary of the method: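 His6-ERR1 LBD (6 nM) with GST-SRC-2 peptide (6 nM), anti-GST Eu cryptate (30 nM) and anti-His XL665 (7.5 nM) in Tris pH 8/KCl/DTT/BSA buffer, equilibrated 4-18 h at 25 °C. Ex 340, em 615/665 nm; hyperbolic dose-response fit, mean of 3 experiments.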

Row | Structure (SMILES) | pEC50
1 | N[C@@H]1C[C@H](CO)N(C2=NC(=O)/C(=C/c3ccc4c(cnn4Cc4ccc(Cl)cc4C(F)(F)F)c3)S2)C1 [Example 257, 2-[(2R,4R)-4-Amino-2-(hydroxymethyl)pyrrolidin-1-yl]-5-({1-[4-chloro-2-(trifluoromethyl)benzyl]-1H-indazol-5-yl}methylidene)-1,3-thiazol-4(5H)-one] | 7.02
2 | CC(=O)N[C@@H]1C[C@H](CO)N(C2=NC(=O)/C(=C/c3ccc4c(cnn4Cc4ccc(C(F)(F)F)cc4C(F)(F)F)c3)S2)C1 [Example 259, N-{1-[(3R,5R)-5-({1-[2,4-Bis(trifluoromethyl)benzyl]-1H-indazol-5-yl}methylidene)-4-oxo-4,5-dihydro-1,3-thiazol-2-yl]-5-(hydroxymethyl)pyrrolidin-3-yl}acetamide] | 7.52
3 | O=C1N=C(N2C[C@H](NC(=O)C3CC3)C[C@@H]2CO)S/C1=C\c1ccc2c(cnn2Cc2ccc(C(F)(F)F)cc2C(F)(F)F)c1 [Example 260, N-{(3R,5R)-1-[5-({1-[2,4-Bis(trifluoromethyl)benzyl]-1H-indazol-5-yl}methylidene)-4-oxo-4,5-dihydro-1,3-thiazol-2-yl]-5-(hydroxymethyl)pyrrolidin-3-yl}cyclopropanecarboxamide] | 6.54
4 | CC(=O)N[C@@H]1C[C@H](CO)N(C2=NC(=O)/C(=C/c3ccc4c(cnn4Cc4ccc(Cl)cc4C(F)(F)F)c3)S2)C1 [Example 261, N-{(3R,5R)-1-[5-({1-[4-Chloro-2-(trifluoromethyl)benzyl]-1H-indazol-5-yl}methylidene)-4-oxo-4,5-dihydro-1,3-thiazol-2-yl]-5-(hydroxymethyl)pyrrolidin-3-yl}acetamide] | 7.70
5 | CC(N[C@H]1CCN(C2=NC(=O)/C(=C/c3ccc4c(cnn4Cc4ccc(Cl)cc4C(F)(F)F)c3)S2)C1)C(N)=O (stereo partly drawn) [Example 265, N-2-{(3S)-1-[5-({1-[4-Chloro-2-(trifluoromethyl)benzyl]-1H-indazol-5-yl}methylidene)-4-oxo-4,5-dihydro-1,3-thiazol-2-yl]pyrrolidin-3-yl}alaninamide] | 7.42
6 | O=C1N=C(N2CCC[C@H](NCC(F)F)C2)S/C1=C\c1ccc2c(cnn2Cc2ccc(C(F)(F)F)cc2C(F)(F)F)c1 [Example 266, 5-({1-[2,4-Bis(trifluoromethyl)benzyl]-1H-indazol-5-yl}methylidene)-2-{(3S)-3-[(2,2-difluoroethyl)amino]piperidin-1-yl}-1,3-thiazol-4(5H)-one] | 7.62
7 | O=C1N=C(N2CCCC(NCCO)C2)S/C1=C\c1ccc2c(cnn2Cc2ccc(C(F)(F)F)cc2C(F)(F)F)c1 (centres unmarked) [Example 267, 5-({1-[2,4-Bis(trifluoromethyl)benzyl]-1H-indazol-5-yl}methylidene)-2-{3-[(2-hydroxyethyl)amino]piperidin-1-yl}-1,3-thiazol-4(5H)-one] | 7.37
8 | O=C1N=C(N2CCC(O)(C(=O)O)CC2)S/C1=C\c1ccc2c(cnn2Cc2ccc(Cl)cc2C(F)(F)F)c1 [Example 268, 1-[5-({1-[4-Chloro-2-(trifluoromethyl)benzyl]-1H-indazol-5-yl}methylidene)-4-oxo-4,5-dihydro-1,3-thiazol-2-yl]-4-hydroxypiperidine-4-carboxylic acid] | 7.82
9 | CONC(=O)C1CN(C2=NC(=O)/C(=C/c3ccc4c(cnn4Cc4ccc(Cl)cc4C(F)(F)F)c3)S2)CCN1 (centres unmarked) [Example 271, 4-[5-({1-[4-Chloro-2-(trifluoromethyl)benzyl]-1H-indazol-5-yl}methylidene)-4-oxo-4,5-dihydro-1,3-thiazol-2-yl]-N-methoxypiperazine-2-carboxamide] | 8.05
10 | CONC(=O)C1CN(C2=NC(=O)/C(=C/c3ccc4c(cnn4Cc4ccc(C(F)(F)F)cc4C(F)(F)F)c3)S2)CCN1 (centres unmarked) [Example 272, 4-[5-({1-[2,4-Bis(trifluoromethyl)benzyl]-1H-indazol-5-yl}methylidene)-4-oxo-4,5-dihydro-1,3-thiazol-2-yl]-N-methoxypiperazine-2-carboxamide] | 7.46
11 | NC(=O)C1CN(C2=NC(=O)/C(=C/c3ccc4c(cnn4Cc4ccc(C(F)(F)F)cc4C(F)(F)F)c3)S2)CCN1 (centres unmarked) [Example 274, 4-[5-({1-[2,4-Bis(trifluoromethyl)benzyl]-1H-indazol-5-yl}methylidene)-4-oxo-4,5-dihydro-1,3-thiazol-2-yl]piperazine-2-carboxamide] | 8.10
12 | C=C(C)c1ccc(Cn2ncc3cc(/C=C4\SC(N5CCO[C@@H](CO)C5)=NC4=O)ccc32)c(C(F)(F)F)c1 [Example 275, 2-[(2R)-2-(Hydroxymethyl)morpholin-4-yl]-5-({1-[4-(1-methylethenyl)-2-(trifluoromethyl)benzyl]-1H-indazol-5-yl}methylidene)-1,3-thiazol-4(5H)-one] | 7.96
13 | Cc1nn(Cc2ccc(Cl)cc2C(F)(F)F)c2ccc(/C=C3\SC(N4CCC(C(=O)O)CC4)=NC3=O)cc12 [Example 276, 1-[5-({1-[4-Chloro-2-(trifluoromethyl)benzyl]-3-methyl-1H-indazol-5-yl}methylidene)-4-oxo-4,5-dihydro-1,3-thiazol-2-yl]piperidine-4-carboxylic acid] | 7.62
14 | CC(C)(C)OC(=O)N1CCN(C2=NC(=O)/C(=C/c3ccc4c(c3)c(I)nn4Cc3ccc(C(F)(F)F)cc3C(F)(F)F)S2)C[C@@H]1CO [Example 279, tert-Butyl (2R)-4-[5-({1-[2,4-bis(trifluoromethyl)benzyl]-3-iodo-1H-indazol-5-yl}methylidene)-4-oxo-4,5-dihydro-1,3-thiazol-2-yl]-2-(hydroxymethyl)piperazine-1-carboxylate] | 7.96
15 | COC(=O)CNC(=O)[C@@H]1CN(C2=NC(=O)/C(=C/c3ccc4c(cnn4Cc4ccc(C(F)(F)F)cc4C(F)(F)F)c3)S2)CCO1 [Example 282, Methyl N-({(2S)-4-[5-({1-[2,4-bis(trifluoromethyl)benzyl]-1H-indazol-5-yl}methylidene)-4-oxo-4,5-dihydro-1,3-thiazol-2-yl]morpholin-2-yl}carbonyl)glycinate] | < 5.40

More lines, in order of rising pEC50, values ahead:

Row | pEC50 | Structure (SMILES)
16 | 6.23 | O=C1N=C(N2CCO[C@H](CO)C2)S/C1=C\c1ccc2c(cnn2Cc2ncccc2C(F)(F)F)c1 [Example 281, 2-[(2S)-2-(Hydroxymethyl)morpholin-4-yl]-5-[(1-{[3-(trifluoromethyl)pyridin-2-yl]methyl}-1H-indazol-5-yl)methylidene]-1,3-thiazol-4(5H)-one]
17 | 7.19 | CC(C)N[C@@H]1C[C@H](CO)N(C2=NC(=O)/C(=C/c3ccc4c(cnn4Cc4ccc(C(F)(F)F)cc4C(F)(F)F)c3)S2)C1 [Example 262]
18 | 7.33 | CC(N[C@H]1CCN(C2=NC(=O)/C(=C/c3ccc4c(cnn4Cc4ccc(C(F)(F)F)cc4C(F)(F)F)c3)S2)C1)C(N)=O (stereo partly drawn) [Example 264, N-2-{(3S)-1-[5-({1-[2,4-Bis(trifluoromethyl)benzyl]-1H-indazol-5-yl}methylidene)-4-oxo-4,5-dihydro-1,3-thiazol-2-yl]pyrrolidin-3-yl}alaninamide]
19 | 7.38 | CC(C)N[C@@H]1C[C@H](CO)N(C2=NC(=O)/C(=C/c3ccc4c(cnn4Cc4ccc(Cl)cc4C(F)(F)F)c3)S2)C1 [Example 263]
20 | 7.52 | N[C@@H]1C[C@H](CO)N(C2=NC(=O)/C(=C/c3ccc4c(cnn4Cc4ccc(C(F)(F)F)cc4C(F)(F)F)c3)S2)C1 [Example 258, 2-[(2R,4R)-4-Amino-2-(hydroxymethyl)pyrrolidin-1-yl]-5-({1-[2,4-bis(trifluoromethyl)benzyl]-1H-indazol-5-yl}methylidene)-1,3-thiazol-4(5H)-one]
21 | 7.77 | Cc1nn(Cc2ccc(Cl)cc2C(F)(F)F)c2ccc(/C=C3\SC(N4CCN(C)C(C)(C)C4)=NC3=O)cc12 [Example 278, 5-({1-[4-Chloro-2-(trifluoromethyl)benzyl]-3-methyl-1H-indazol-5-yl}methylidene)-2-(3,3,4-trimethylpiperazin-1-yl)-1,3-thiazol-4(5H)-one]
22 | 7.82 | O=C1N=C(N2CCC(O)(C(=O)O)CC2)S/C1=C\c1ccc2c(cnn2Cc2ccc(C(F)(F)F)cc2C(F)(F)F)c1 [Example 269, 1-[5-({1-[2,4-Bis(trifluoromethyl)benzyl]-1H-indazol-5-yl}methylidene)-4-oxo-4,5-dihydro-1,3-thiazol-2-yl]-4-hydroxypiperidine-4-carboxylic acid]
23 | 8.05 | Cc1nn(Cc2ccc(Cl)cc2C(F)(F)F)c2ccc(/C=C3\SC(N4CCN[C@H](CO)C4)=NC3=O)cc12 [Example 277, 5-({1-[4-Chloro-2-(trifluoromethyl)benzyl]-3-methyl-1H-indazol-5-yl}methylidene)-2-[(3S)-3-(hydroxymethyl)piperazin-1-yl]-1,3-thiazol-4(5H)-one]
24 | 8.10 | CNC1CN(C2=NC(=O)/C(=C/c3ccc4c(cnn4Cc4ccc(Cl)cc4C(F)(F)F)c3)S2)C1 [Example 270, 5-({1-[4-Chloro-2-(trifluoromethyl)benzyl]-1H-indazol-5-yl}methylidene)-2-[3-(methylamino)azetidin-1-yl]-1,3-thiazol-4(5H)-one]
25 | 8.22 | NC(=O)C1CN(C2=NC(=O)/C(=C/c3ccc4c(cnn4Cc4ccc(Cl)cc4C(F)(F)F)c3)S2)CCN1 (centres unmarked) [Example 273, 4-[5-({1-[4-Chloro-2-(trifluoromethyl)benzyl]-1H-indazol-5-yl}methylidene)-4-oxo-4,5-dihydro-1,3-thiazol-2-yl]piperazine-2-carboxamide]
26 | 8.52 | CC(=O)OC[C@@H]1CN(C2=NC(=O)/C(=C/c3ccc4c(cnn4Cc4ccc(C(F)(F)F)cc4C(F)(F)F)c3)S2)CCO1 [Example 280, {(2S)-4-[5-({1-[2,4-Bis(trifluoromethyl)benzyl]-1H-indazol-5-yl}methylidene)-4-oxo-4,5-dihydro-1,3-thiazol-2-yl]morpholin-2-yl}methyl acetate]

— patent publication US8399681B2, “Substituted aminothiazolone indazoles as estrogen related receptor-alpha modulators” (Janssen Pharmaceutica NV, priority 2009, dated 2013)
